Assay results taken from patent US12240841B2, “FXR small molecule agonist and preparation method therefor and use thereof” (Shanghai Institute of Materia Medica, Chinese Academy of …, priority 2019, dated 2025).
Read-outs that look alike come from different tables or passages of the source.

Columns and labels:
[1] = target: T1, recombinant GST-FXR fusion protein (Homo sapiens, UniProt Q96RI1); test: FXR activity at the molecular level (AlphaScreen); type: biochemical
T1 sequence (Q96RI1 1-486): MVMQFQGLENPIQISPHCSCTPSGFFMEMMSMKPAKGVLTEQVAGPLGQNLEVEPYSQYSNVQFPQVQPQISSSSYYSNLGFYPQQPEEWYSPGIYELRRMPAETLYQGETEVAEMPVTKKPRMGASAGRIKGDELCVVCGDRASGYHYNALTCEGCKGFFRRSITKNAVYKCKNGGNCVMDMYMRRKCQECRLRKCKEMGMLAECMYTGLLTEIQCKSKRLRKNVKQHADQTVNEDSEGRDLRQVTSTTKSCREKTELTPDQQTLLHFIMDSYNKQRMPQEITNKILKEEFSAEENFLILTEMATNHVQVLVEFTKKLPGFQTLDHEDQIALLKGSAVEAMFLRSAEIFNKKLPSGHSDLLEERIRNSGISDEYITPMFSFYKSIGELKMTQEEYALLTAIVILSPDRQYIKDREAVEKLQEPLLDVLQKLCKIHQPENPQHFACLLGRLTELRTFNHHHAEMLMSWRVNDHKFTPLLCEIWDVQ
Method: Test Method for FXR Activity at the Molecular Level
FXR activity was determined using recombinant GST-FXR fusion protein by Perkin Elmer's AlphaScreen detection reagent. The reaction in this method was carried out in a 384-well plate, and the total reaction volume was 15 μL. The mixture of protein, agonist, co-regulatory factor, AlphaScreen® acceptor beads and AlphaScreen® donor beads was reacted in a buffer containing Tris-HCl 50 mM (pH7.4), 50 mM NaCl, BSA 0.1%, and 1 mM DTT. The FXR activity was reflected by the fluorescence signal intensity at 570 nm wavelength detected by the Envision fluorescence detector. The value of EC50 was calculated by the software Graphpad Prism 5.

FXR receptor = target: T2, FXR receptor (Homo sapiens, UniProt Q96RI1); test: FXR activity at the cell level (FXRE luciferase reporter in 293T cells); type: cell-based; conditions: for Activity relative to OCA (%) 10 μM: luciferase reporter
T2 construct: expressed in transfected cells; host or cells: 293T cells
T2 sequence (Q96RI1 1-486): T1 sequence (Q96RI1 1-486)
Method: The cells were cultured for 24 hours to ensure plasmid expression. Then the FXR receptor agonist to be tested was added and acted for 18 hours. The fluorescence intensity was detected using luciferase kit (steady-Glo Luciferase Assay system) to reflect the compound's activation efficiency on the FXR receptor. […] The appropriate concentration interval was selected, and the dose-dependent relationship, that is, the EC50 value, was calculated.

[2] = 293T cells, FXRE luciferase reporter, read-out: EC50 (cell level)

O=c1[nH]c(-c2ccc(N3CCC(OCc4c(-c5c(Cl)cccc5Cl)noc4C4CC4)CC3)cc2)no1 [Example 2]
EC50 [1]: 72 nM
Activity relative to OCA (%) 10 μM (FXR receptor; 293T cells): 174%
EC50 (FXR receptor; [2]): 1 nM

O=c1[nH]c(-c2cccc(N3CCCC(OCc4c(-c5c(Cl)cccc5Cl)noc4C4CC4)CC3)c2)no1 (stereo not drawn) [Example 3]
EC50 [1]: 1810 nM
Activity relative to OCA (%) 10 μM (FXR receptor; 293T cells): 87%
EC50 (FXR receptor; [2]): 14 nM

O=c1[nH]c(-c2ccc(N3CCCC(OCc4c(-c5c(Cl)cccc5Cl)noc4C4CC4)CC3)cc2)no1 (stereo not drawn) [Example 4]
EC50 [1]: 15 nM
Activity relative to OCA (%) 10 μM (FXR receptor; 293T cells): 97%
EC50 (FXR receptor; [2]): 0.6 nM

O=c1[nH]c(-c2cccc(N3CCC(OCc4c(-c5c(Cl)cccc5Cl)noc4C4CC4)C3)c2)no1 (stereo not drawn) [Example 5]
EC50 [1]: 4700 nM
Activity relative to OCA (%) 10 μM (FXR receptor; 293T cells): 83%
EC50 (FXR receptor; [2]): 844 nM

O=c1[nH]c(-c2ccc(N3CCC(OCc4c(-c5c(Cl)cccc5Cl)noc4C4CC4)C3)cc2)no1 (stereo not drawn) [Example 6]
EC50 [1]: 3920 nM
Activity relative to OCA (%) 10 μM (FXR receptor; 293T cells): 99%
EC50 (FXR receptor; [2]): 32 nM

O=c1[nH]c(-c2ccc(N3C4CCC3CC(OCc3c(-c5c(Cl)cccc5Cl)noc3C3CC3)C4)cc2)no1 (stereo not drawn) [Example 7]
EC50 [1]: 6.7 nM
Activity relative to OCA (%) 10 μM (FXR receptor; 293T cells): 88%
EC50 (FXR receptor; [2]): 6 nM

O=c1[nH]c(-c2ccc(N3CCC(OCc4c(-c5ccccc5OC(F)(F)F)noc4C4CC4)CC3)cc2)no1 [Example 9]
EC50 [1]: 55 nM
Activity relative to OCA (%) 10 μM (FXR receptor; 293T cells): 90%
EC50 (FXR receptor; [2]): 4 nM

Cc1onc(-c2c(Cl)cccc2Cl)c1COC1CCN(c2ccc(-c3noc(=O)[nH]3)cc2)CC1 [Example 10]
EC50 [1]: 1040 nM
Activity relative to OCA (%) 10 μM (FXR receptor; 293T cells): 202%
EC50 (FXR receptor; [2]): 0.2 nM

CC(C)c1onc(-c2c(Cl)cccc2Cl)c1COC1CCN(c2ccc(-c3noc(=O)[nH]3)cc2)CC1 [Example 11]
EC50 [1]: 439 nM
Activity relative to OCA (%) 10 μM (FXR receptor; 293T cells): 164%
EC50 (FXR receptor; [2]): 0.7 nM

O=c1[nH]c(-c2ccc(N3CCC(OCc4c(-c5c(Cl)cccc5Cl)noc4-c4ccccc4)CC3)cc2)no1 [Example 12]
EC50 [1]: 2880 nM
Activity relative to OCA (%) 10 μM (FXR receptor; 293T cells): 63%
EC50 (FXR receptor; [2]): 35 nM

O=c1[nH]c(-c2ccc(N3CCC(OCc4c(-c5c(Cl)cccc5Cl)noc4C4CC4)CC3)nc2)no1 [Example 13]
EC50 [1]: 178 nM
Activity relative to OCA (%) 10 μM (FXR receptor; 293T cells): 111%
EC50 (FXR receptor; [2]): 0.7 nM

O=c1[nH]c(-c2ccc(N3CCC(OCc4c(-c5c(Cl)cccc5Cl)noc4C4CC4)CC3)cn2)no1 [Example 14]
EC50 [1]: 598 nM
Activity relative to OCA (%) 10 μM (FXR receptor; 293T cells): 74%
EC50 (FXR receptor; [2]): 5 nM

Cc1cc(-c2noc(=O)[nH]2)ccc1N1CCC(OCc2c(-c3c(Cl)cccc3Cl)noc2C2CC2)CC1 [Example 15]
EC50 [1]: 2650 nM
Activity relative to OCA (%) 10 μM (FXR receptor; 293T cells): 159%
EC50 (FXR receptor; [2]): 3 nM

O=c1[nH]c(-c2ccc(N3CCC(OCc4c(-c5c(Cl)cccc5Cl)noc4C4CC4)CC3)cc2F)no1 [Example 16]
EC50 [1]: 195 nM
Activity relative to OCA (%) 10 μM (FXR receptor; 293T cells): 168%
EC50 (FXR receptor; [2]): 0.2 nM

O=c1[nH]c(-c2c(F)cc(N3CCC(OCc4c(-c5c(Cl)cccc5Cl)noc4C4CC4)CC3)cc2F)no1 [Example 17]
EC50 [1]: 257 nM
Activity relative to OCA (%) 10 μM (FXR receptor; 293T cells): 161%
EC50 (FXR receptor; [2]): 0.3 nM

O=c1[nH]c(-c2ccc(N3CCC(OCc4c(-c5c(Cl)cccc5Cl)noc4C4CC4)CC3)c(F)c2)no1 [Example 18]
EC50 [1]: 614 nM
Activity relative to OCA (%) 10 μM (FXR receptor; 293T cells): 150%
EC50 (FXR receptor; [2]): 2 nM

Cn1cc(-c2noc(=O)[nH]2)c2cc(N3CCC(OCc4c(-c5c(Cl)cccc5Cl)noc4C4CC4)CC3)ccc21 [Example 19]
EC50 [1]: 3140 nM
Activity relative to OCA (%) 10 μM (FXR receptor; 293T cells): 132%
EC50 (FXR receptor; [2]): 285 nM

S=c1[nH]c(-c2ccc(N3CCC(OCc4c(-c5c(Cl)cccc5Cl)noc4C4CC4)CC3)cc2)no1 [Example 20]
EC50 [1]: 5470 nM
Activity relative to OCA (%) 10 μM (FXR receptor; 293T cells): 146%
EC50 (FXR receptor; [2]): 5 nM

O=c1[nH]c(-c2ccc(N3CCC(OCc4c(-c5ccccc5C(F)(F)F)noc4C4CC4)CC3)nc2)no1 [Example 21]
EC50 [1]: 96.7 nM
Activity relative to OCA (%) 10 μM (FXR receptor; 293T cells): 117%
EC50 (FXR receptor; [2]): 1.32 nM

O=c1[nH]c(-c2ccc(N3CCC(OCc4c(-c5ccccc5C(F)(F)F)noc4C4CC4)CC3)cn2)no1 [Example 22]
EC50 [1]: 386 nM
Activity relative to OCA (%) 10 μM (FXR receptor; 293T cells): 108%
EC50 (FXR receptor; [2]): 1.99 nM

O=c1[nH]c(-c2ccc(N3CCC(OCc4c(-c5ccccc5C(F)(F)F)noc4C4CC4)CC3)c(F)c2)no1 [Example 23]
EC50 [1]: 392 nM
Activity relative to OCA (%) 10 μM (FXR receptor; 293T cells): 109%
EC50 (FXR receptor; [2]): 2.22 nM

O=c1[nH]c(-c2ccc(N3CCC(OCc4c(-c5ccccc5C(F)(F)F)noc4C4CC4)CC3)cc2F)no1 [Example 24]
EC50 [1]: 59 nM
Activity relative to OCA (%) 10 μM (FXR receptor; 293T cells): 105%
EC50 (FXR receptor; [2]): 0.196 nM

O=c1[nH]c(-c2c(F)cc(N3CCC(OCc4c(-c5ccccc5C(F)(F)F)noc4C4CC4)CC3)cc2F)no1 [Example 25]
EC50 [1]: 84.7 nM
Activity relative to OCA (%) 10 μM (FXR receptor; 293T cells): 103%
EC50 (FXR receptor; [2]): 0.12 nM

O=c1[nH]c(-c2ccc(N3CCC(OCc4c(-c5ccccc5OC(F)(F)F)noc4C4CC4)CC3)nc2)no1 [Example 26]
EC50 [1]: 70 nM
Activity relative to OCA (%) 10 μM (FXR receptor; 293T cells): 103%
EC50 (FXR receptor; [2]): 0.254 nM

O=c1[nH]c(-c2ccc(N3CCC(OCc4c(-c5ccccc5OC(F)(F)F)noc4C4CC4)CC3)cn2)no1 [Example 27]
EC50 [1]: 20.9 nM
Activity relative to OCA (%) 10 μM (FXR receptor; 293T cells): 106%
EC50 (FXR receptor; [2]): 0.357 nM

O=c1[nH]c(-c2ccc(N3CCC(OCc4c(-c5ccccc5OC(F)(F)F)noc4C4CC4)CC3)c(F)c2)no1 [Example 28]
EC50 [1]: 380 nM
Activity relative to OCA (%) 10 μM (FXR receptor; 293T cells): 107%
EC50 (FXR receptor; [2]): 0.617 nM

O=c1[nH]c(-c2ccc(N3CCC(OCc4c(-c5ccccc5OC(F)(F)F)noc4C4CC4)CC3)cc2F)no1 [Example 29]
EC50 [1]: 108 nM
Activity relative to OCA (%) 10 μM (FXR receptor; 293T cells): 120%
EC50 (FXR receptor; [2]): 0.938 nM

O=c1[nH]c(-c2c(F)cc(N3CCC(OCc4c(-c5ccccc5OC(F)(F)F)noc4C4CC4)CC3)cc2F)no1 [Example 30]
EC50 [1]: 89 nM
Activity relative to OCA (%) 10 μM (FXR receptor; 293T cells): 120%
EC50 (FXR receptor; [2]): 0.255 nM

O=c1[nH]c(-c2ccc(N3C4CCC3CC(OCc3c(-c5c(F)cccc5F)noc3C3CC3)C4)nc2)no1 (stereo not drawn) [Example 31]
EC50 [1]: 11.3 nM
Activity relative to OCA (%) 10 μM (FXR receptor; 293T cells): 116%
EC50 (FXR receptor; [2]): 0.608 nM

O=c1[nH]c(-c2ccc(N3C4CCC3CC(OCc3c(-c5c(Cl)cccc5Cl)noc3C3CC3)C4)nc2)no1 (stereo not drawn) [Example 32]
EC50 [1]: 4.33 nM
Activity relative to OCA (%) 10 μM (FXR receptor; 293T cells): 103%
EC50 (FXR receptor; [2]): 0.0783 nM

O=c1[nH]c(-c2ccc(N3C4CCC3CC(OCc3c(-c5ccccc5C(F)(F)F)noc3C3CC3)C4)nc2)no1 (stereo not drawn) [Example 33]
EC50 [1]: 18.8 nM
Activity relative to OCA (%) 10 μM (FXR receptor; 293T cells): 141%
EC50 (FXR receptor; [2]): 0.387 nM

O=c1[nH]c(-c2ccc(N3C4CCC3CC(OCc3c(-c5ccccc5OC(F)(F)F)noc3C3CC3)C4)nc2)no1 (stereo not drawn) [Example 34]
EC50 [1]: 19.7 nM
Activity relative to OCA (%) 10 μM (FXR receptor; 293T cells): 122%
EC50 (FXR receptor; [2]): 0.388 nM

O=c1[nH]c(-c2ccc(N3C4CCC3CC(OCc3c(-c5c(F)cccc5F)noc3C3CC3)C4)cc2F)no1 (stereo not drawn) [Example 35]
EC50 [1]: 18.5 nM
Activity relative to OCA (%) 10 μM (FXR receptor; 293T cells): 117%
EC50 (FXR receptor; [2]): 0.318 nM

O=c1[nH]c(-c2ccc(N3C4CCC3CC(OCc3c(-c5c(Cl)cccc5Cl)noc3C3CC3)C4)cc2F)no1 (stereo not drawn) [Example 36]
EC50 [1]: 4.22 nM
EC50 (FXR receptor): 0.0317 nM
Activity relative to OCA (%) 10 μM (FXR receptor; 293T cells): 102%
